In PMC6934184, “Selective DNA-PKcs inhibition extends the therapeutic index of localized radiotherapy and chemotherapy” (The Journal of Clinical Investigation, 2019):
“And” between values parts separate entries of the source, which are not always exact repeats. Equal entries are not always repeated.

How the values were obtained:
[1] = test system: Huh7 subcutaneous xenografts; assay: subcutaneous Huh7 xenograft with intratumoral doxorubicin-eluting beads; assay type: in vivo, CD-1 nude mice
Procedure: DC M1 beads were loaded with doxorubicin at 25 mg/mL as described in Supplemental Methods. Huh7 cells (5 × 10^6 cells per mouse in 50 μL, 50% vol/vol Matrigel) were implanted s.c. into the right flank of female CD-1 nude mice to generate subcutaneous Huh7 xenografts (180–220 mm^3). Mice were then treated with 5 μL doxorubicin-loaded or unloaded beads suspended in 30 μL saline administered via an intratumoral injection along the length of each tumor using a 29G needle. One hour after bead implantation, twice-daily dosing with 30 mg/kg NU5455 or vehicle control (1% vol/vol acetic acid in water) was commenced via oral gavage (9-hour dosing interval) and continued for up to 20 days. Tumor volumes were calculated daily using bilateral caliper measurements as described in Supplemental Methods, and body weight measurements taken daily throughout treatment. […]
γH2AX immunohistochemistry in HCC tumor xenografts
FFPE tumor sections (4 µm) were dewaxed in xylene and hydrated in descending concentrations of ethanol. Endogenous tissue peroxidase activity was quenched using 3% v/v hydrogen peroxide. Antigen retrieval was performed using 1 mM EDTA, pH 8.0 in a microwave (Kenwood). Tissue sections were blocked for avidin and biotin using the […]
Avidin/Biotin Blocking Kit (Vector Laboratories), and washed in TBST be tween all subsequent steps. Slides were blocked in 20% v/v pig serum in DI water, and sections incubated with an antibody against γH2AX ( 20E3, Cell Signaling Technology #9718, 1 in 200 in TBST) in a humidified container at 4°C overnight.
Sections were th en incubated with polyclonal swine anti -rabbit IgG, biotinylated (Dako #E0353, 1 in 200 in TBST), followed by VectaStain RTU Elite ABC reagent (Vector Laboratories). Slides were stained using DAB Peroxidase Substrate Kit (Vector Laboratories) prepared according to the manufacturer’s instructions. Slides were washed in DI water, then counterstained in filtered haematoxylin s olution. Background staining was minimized by exposure to acid alcohol solution (1% v/v hydrochloric acid in 70% v/v ethanol, Fisher), and staining blued by incubation in Scott’s tap water. Stained slides were then dehydrated in ascending concentrations of ethanol, followed by clearing in xylene. Glass coverslips (Dako) were mounted onto slides using DPX mounting medium. pDNA-PKcs Ser2056 immunohistochemistry in HCC tumor xenografts
Tumor sections were dewaxed in xylene, hydrated, and endogenous peroxidase activity quenched as detailed above. Antigen retrieval was performed in 1X citrate buffer (10 mM citric acid (Acros), pH 6.0 + 0.5% v/v Tween 20), using a decloaker (A. Menarini Diagnostics).
Tissue sections were blocked in 1% w/v BSA and 1% v/v normal go at serum in PBS (1 hour, RT). Sections were then incubated at 4°C overnight in a humidified container with an antibody against pDNA -PKcs Ser2056 (Abcam #18192, 1:1000 in 1% w/v BSA and 1% v/v […]
Sections were washed with TBST before incuba tion with EnVision+ anti -rabbit Polymer-HRP solution (Dako #K4002). Slides were washed in TBST , and antibody conjugates visualized by incubation with ImmPACT DAB peroxidase substrate working solution. […]
IHC slides were digitized via conversion using the Aperio ScanScope CS Brightfield scanner (Leica Biosystems) at x20 zoom. Percentage hepatocyte nuclear positivity for pDNA -PKcs Ser2056 and γH2AX was determined using a nuclear algorithm generated with the Aperio ImageScope software v11.2.0.780 (Leica Biosystems). […]

[2] = target: ATR (Homo sapiens, UniProt Q13535); assay: SelectScreen Profiling IC50; assay type: biochemical
Procedure: (§1) The in vitro kinase selectivity of NU5455 was determined using the SelectScreen Broad Assay Panel (Thermo Fisher Scientific) involving activity and binding assays (Supplemental Table 1). […] Class IA PI3Ks were measured using the p85α subunit.
(§2) PI3K Kinase NU5455 IC (nM) Fold selectivity
(§3) Supplemental Table 2. NU5455 potency and selectivity across the PI3K kinase family.
(§4) µM NU5455 for DNA-PK versus other PIKK and PI3K family members was assessed by SelectScreen Profiling (Life Technologies). The
(§5) ATP concentration was the Kmapp except for * where the ATP concentration was 10 μM (mean ± SEM, n=4-7).

[3] = target: PI3K-C2α (Homo sapiens, UniProt O00443); assay: SelectScreen Profiling IC50; assay type: biochemical
Procedure: as §1, §2, §3, §4, §5

[4] = target: p110β (Homo sapiens, UniProt P42338); assay: SelectScreen Profiling IC50; assay type: biochemical
Sequence of p110β (P42338 whole entry): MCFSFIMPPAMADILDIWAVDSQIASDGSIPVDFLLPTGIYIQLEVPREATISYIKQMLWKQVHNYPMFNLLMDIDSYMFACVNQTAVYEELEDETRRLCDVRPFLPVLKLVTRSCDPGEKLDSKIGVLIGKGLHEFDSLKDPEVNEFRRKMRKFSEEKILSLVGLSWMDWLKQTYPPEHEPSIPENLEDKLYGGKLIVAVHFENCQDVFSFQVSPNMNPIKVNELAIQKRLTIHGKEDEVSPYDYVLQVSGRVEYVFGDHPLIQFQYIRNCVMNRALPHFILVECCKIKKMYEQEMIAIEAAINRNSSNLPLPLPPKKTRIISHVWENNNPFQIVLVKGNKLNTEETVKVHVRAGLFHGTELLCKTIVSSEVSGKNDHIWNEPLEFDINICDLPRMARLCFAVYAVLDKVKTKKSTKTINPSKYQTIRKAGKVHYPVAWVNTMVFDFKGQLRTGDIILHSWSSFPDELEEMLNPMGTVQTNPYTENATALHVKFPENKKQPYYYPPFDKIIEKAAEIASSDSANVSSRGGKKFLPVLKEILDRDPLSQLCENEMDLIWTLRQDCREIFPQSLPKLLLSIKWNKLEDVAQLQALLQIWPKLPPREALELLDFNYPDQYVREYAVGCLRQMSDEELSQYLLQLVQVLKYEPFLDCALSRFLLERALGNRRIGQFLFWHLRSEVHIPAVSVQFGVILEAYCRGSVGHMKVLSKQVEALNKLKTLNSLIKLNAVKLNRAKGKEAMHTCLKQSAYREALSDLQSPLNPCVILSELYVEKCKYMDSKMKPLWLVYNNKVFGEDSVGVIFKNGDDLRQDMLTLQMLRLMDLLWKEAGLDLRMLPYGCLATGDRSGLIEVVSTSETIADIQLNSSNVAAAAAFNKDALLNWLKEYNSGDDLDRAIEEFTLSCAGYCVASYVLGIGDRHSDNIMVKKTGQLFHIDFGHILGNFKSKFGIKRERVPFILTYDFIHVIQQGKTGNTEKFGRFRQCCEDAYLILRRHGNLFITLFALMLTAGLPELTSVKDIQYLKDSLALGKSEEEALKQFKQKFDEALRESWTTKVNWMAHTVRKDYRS
Sequence of p110β (P27986 whole entry partner): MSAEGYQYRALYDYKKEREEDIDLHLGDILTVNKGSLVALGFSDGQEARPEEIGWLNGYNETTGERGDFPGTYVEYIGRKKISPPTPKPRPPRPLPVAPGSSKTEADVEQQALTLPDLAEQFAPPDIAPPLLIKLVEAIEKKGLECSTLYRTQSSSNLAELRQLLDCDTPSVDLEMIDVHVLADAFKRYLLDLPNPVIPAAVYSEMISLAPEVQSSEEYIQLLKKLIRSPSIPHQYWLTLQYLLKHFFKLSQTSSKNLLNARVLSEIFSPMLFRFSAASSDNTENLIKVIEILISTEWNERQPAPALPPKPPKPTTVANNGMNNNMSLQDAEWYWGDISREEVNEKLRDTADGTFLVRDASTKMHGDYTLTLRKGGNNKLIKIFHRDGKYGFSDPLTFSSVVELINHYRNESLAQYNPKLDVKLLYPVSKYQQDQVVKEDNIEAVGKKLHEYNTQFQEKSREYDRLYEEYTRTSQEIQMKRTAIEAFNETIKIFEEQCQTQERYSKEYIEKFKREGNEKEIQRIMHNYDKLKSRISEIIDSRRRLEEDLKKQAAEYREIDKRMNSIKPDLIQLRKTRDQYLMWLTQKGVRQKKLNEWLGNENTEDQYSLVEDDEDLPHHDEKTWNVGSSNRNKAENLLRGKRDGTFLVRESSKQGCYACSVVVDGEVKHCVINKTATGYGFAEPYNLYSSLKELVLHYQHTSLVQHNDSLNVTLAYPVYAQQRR
Procedure: as §1, §2, §3, §4, §5

[5] = target: PI3K-C2β (Homo sapiens, UniProt O00750); assay: SelectScreen Profiling IC50; assay type: biochemical; details: ATP 10 μM
Procedure: as §1, §2, §3, §4, §5

[6] = target: DNA-PK (Homo sapiens, UniProt P78527); assay: SelectScreen Profiling IC50; assay type: biochemical; details: cell-free; ATP Km app; mean ± SEM, n=4-7; read-out: NU5455 IC50
Procedure: as §1, §2, §3, §4, §5

[7] = target: PI3K-C2γ (Homo sapiens, UniProt O75747); assay: SelectScreen Profiling IC50; assay type: biochemical
Procedure: as §1, §2, §3, §4, §5

[8] = target: ATM (Homo sapiens, UniProt Q13315); assay: SelectScreen Profiling IC50; assay type: biochemical
Sequence of ATM (Q13315 whole entry): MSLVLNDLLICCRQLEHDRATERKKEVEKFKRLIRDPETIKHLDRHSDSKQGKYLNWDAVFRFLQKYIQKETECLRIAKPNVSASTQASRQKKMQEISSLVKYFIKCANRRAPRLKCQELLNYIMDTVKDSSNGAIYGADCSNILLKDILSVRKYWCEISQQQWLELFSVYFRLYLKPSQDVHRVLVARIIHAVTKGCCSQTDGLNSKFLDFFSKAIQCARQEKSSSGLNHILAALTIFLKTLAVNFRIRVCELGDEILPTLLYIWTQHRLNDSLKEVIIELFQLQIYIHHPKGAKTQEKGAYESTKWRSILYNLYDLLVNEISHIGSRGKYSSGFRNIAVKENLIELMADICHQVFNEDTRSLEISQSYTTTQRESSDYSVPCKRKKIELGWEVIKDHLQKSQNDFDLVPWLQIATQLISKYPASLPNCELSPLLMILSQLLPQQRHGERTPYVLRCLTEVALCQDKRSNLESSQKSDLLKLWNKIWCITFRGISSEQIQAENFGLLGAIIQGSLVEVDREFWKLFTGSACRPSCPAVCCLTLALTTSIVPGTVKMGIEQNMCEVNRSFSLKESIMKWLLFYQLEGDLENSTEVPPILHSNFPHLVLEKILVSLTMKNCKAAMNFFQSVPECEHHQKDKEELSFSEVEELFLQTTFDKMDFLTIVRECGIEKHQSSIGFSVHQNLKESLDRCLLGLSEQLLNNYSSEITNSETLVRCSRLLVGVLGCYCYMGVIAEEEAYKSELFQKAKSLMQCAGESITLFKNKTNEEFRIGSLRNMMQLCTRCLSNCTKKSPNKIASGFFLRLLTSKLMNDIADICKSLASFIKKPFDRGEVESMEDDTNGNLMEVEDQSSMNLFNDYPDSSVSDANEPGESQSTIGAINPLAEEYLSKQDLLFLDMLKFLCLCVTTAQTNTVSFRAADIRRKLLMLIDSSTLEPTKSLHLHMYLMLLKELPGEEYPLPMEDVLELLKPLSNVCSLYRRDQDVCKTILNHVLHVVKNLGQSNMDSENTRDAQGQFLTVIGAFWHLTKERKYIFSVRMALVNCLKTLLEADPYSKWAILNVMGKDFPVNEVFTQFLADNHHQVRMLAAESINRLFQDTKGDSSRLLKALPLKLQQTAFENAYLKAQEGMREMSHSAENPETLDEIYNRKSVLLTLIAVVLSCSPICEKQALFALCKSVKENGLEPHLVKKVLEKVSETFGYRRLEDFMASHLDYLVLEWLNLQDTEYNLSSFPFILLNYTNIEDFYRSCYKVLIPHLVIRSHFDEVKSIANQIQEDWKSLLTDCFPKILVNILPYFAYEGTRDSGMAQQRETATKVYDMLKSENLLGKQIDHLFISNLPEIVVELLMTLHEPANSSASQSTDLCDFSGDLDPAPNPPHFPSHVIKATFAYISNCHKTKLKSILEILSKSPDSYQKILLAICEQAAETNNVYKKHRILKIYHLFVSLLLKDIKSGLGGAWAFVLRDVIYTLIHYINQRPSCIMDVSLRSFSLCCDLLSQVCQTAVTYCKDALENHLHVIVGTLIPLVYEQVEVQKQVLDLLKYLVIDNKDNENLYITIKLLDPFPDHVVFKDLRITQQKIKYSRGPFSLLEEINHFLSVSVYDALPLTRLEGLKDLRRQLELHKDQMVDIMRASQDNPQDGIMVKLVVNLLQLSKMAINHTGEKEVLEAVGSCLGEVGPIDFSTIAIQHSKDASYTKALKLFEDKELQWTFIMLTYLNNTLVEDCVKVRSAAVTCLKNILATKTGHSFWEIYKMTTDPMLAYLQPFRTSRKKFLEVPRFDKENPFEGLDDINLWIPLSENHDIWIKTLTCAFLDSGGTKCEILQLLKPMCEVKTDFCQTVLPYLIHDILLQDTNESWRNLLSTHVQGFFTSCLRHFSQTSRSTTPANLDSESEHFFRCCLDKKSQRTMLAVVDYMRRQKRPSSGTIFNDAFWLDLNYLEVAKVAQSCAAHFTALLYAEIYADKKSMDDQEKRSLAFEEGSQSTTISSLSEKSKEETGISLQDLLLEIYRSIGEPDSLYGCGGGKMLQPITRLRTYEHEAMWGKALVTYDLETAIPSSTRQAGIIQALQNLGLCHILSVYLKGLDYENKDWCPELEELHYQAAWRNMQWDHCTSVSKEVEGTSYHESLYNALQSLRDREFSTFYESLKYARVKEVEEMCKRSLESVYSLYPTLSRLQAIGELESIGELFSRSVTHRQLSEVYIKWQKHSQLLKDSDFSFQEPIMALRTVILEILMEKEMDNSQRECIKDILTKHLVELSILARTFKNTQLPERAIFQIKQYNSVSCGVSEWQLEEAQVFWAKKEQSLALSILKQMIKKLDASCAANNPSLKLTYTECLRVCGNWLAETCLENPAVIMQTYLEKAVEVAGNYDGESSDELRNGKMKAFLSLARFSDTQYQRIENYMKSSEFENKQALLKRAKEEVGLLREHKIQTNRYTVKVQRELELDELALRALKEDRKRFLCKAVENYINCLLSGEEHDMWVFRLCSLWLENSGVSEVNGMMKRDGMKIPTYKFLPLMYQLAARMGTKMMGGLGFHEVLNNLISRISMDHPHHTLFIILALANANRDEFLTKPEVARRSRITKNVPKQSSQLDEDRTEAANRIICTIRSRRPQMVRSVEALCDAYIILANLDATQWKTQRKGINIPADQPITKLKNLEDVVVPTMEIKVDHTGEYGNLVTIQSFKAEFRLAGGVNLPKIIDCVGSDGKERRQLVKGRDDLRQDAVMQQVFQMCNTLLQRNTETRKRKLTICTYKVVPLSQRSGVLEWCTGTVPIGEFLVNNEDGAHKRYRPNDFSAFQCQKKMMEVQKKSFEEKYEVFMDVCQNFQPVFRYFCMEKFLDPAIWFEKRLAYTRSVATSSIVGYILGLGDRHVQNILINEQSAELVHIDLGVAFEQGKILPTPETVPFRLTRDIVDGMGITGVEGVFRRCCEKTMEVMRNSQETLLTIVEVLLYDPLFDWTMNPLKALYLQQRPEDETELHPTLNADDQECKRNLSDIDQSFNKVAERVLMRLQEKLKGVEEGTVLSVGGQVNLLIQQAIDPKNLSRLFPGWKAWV
Procedure: as §1, §2, §3, §4, §5

[9] = target: p110γ (Homo sapiens, UniProt P48736); assay: SelectScreen Profiling IC50; assay type: biochemical
Procedure: as §1, §2, §3, §4, §5

[10] = target: p110δ (Homo sapiens, UniProt O00329); assay: SelectScreen Profiling IC50; assay type: biochemical
Procedure: as §1, §2, §3, §4, §5

[11] = target: Vps34 (Homo sapiens, UniProt Q8NEB9); assay: SelectScreen Profiling IC50; assay type: biochemical
Procedure: as §1, §2, §3, §4, §5

[12] = target: mTOR (Homo sapiens, UniProt P42345); assay: SelectScreen Profiling IC50; assay type: biochemical
Procedure: as §1, §2, §3, §4, §5

[13] = cell-free, ATP Km app, read-out: NU5455 IC50
[14] = cell-free, ATP Km app, p85α subunit, mean ± SEM, read-out: NU5455 IC50
[15] = cell-free, ATP Km app, mean ± SEM, read-out: NU5455 IC50

## CN(C(=O)CN1CCOCC1)c1ccc2sc3c(-c4cccc5c(=O)cc(N6CC7CCC(C6)O7)oc45)cccc3c2c1 [NU5455]
[1]; 72 hours of treatment, doxorubicin-loaded beads, immunohistochemistry
  DNA-PKcs phosphorylation (Ser2056) in tumors: reduced by NU5455 treatment
[1]; 72 hours, immunohistochemistry
  DNA damage (γH2AX) in area surrounding doxorubicin-eluting beads: significantly augmented
[1]; NU5455 30 mg/kg b.i.d. with unloaded beads, or doxorubicin beads with vehicle
  mean RTV4 value, monotherapy: 10.6 days
[1]; NU5455 30 mg/kg oral b.i.d. + doxorubicin-eluting beads
  body weight or clinical condition versus vehicle alone: no additional impact
[1]; NU5455 30 mg/kg oral b.i.d. + intratumoral doxorubicin-eluting beads
  mean RTV4 value, combination: 17.8 days
[2]; [13]
  IC50: > 10 µM
[2]; versus ATR
  Fold selectivity for DNA-PK: > 1220 fold and > 1200 fold
[3]; [13]
  IC50: > 10 µM
[3]; versus PI3K-C2α
  Fold selectivity for DNA-PK: > 1220 fold
[4]; [14]
  IC50: 9.32 ± 1.25 µM
[4]; versus p110β
  Fold selectivity for DNA-PK: 1137 fold
[5]; cell-free, mean ± SEM, read-out: NU5455 IC50
  IC50: 1960 ± 424 nM
[5]; versus PI3K-C2β
  Fold selectivity for DNA-PK: 239 fold
[6]
  IC50: 8.2 ± 2 nM
[7]; [13]
  IC50: > 10 µM
[7]; versus PI3K-C2γ
  Fold selectivity for DNA-PK: > 1220 fold
[8]; [13]
  IC50: > 10 µM
[8]; versus ATM
  Fold selectivity for DNA-PK: > 1220 fold and > 1200 fold
[9]; [13]
  IC50: > 10 µM
[9]; versus p110γ
  Fold selectivity for DNA-PK: > 1220 fold
[10]; [14]
  IC50: 276 ± 22 nM
[10]; versus p110δ (PI3Kδ)
  Fold selectivity for DNA-PK: 33.7 fold
[11]; [15]
  IC50: 71 ± 19 nM
[11]; versus Vps34
  Fold selectivity for DNA-PK: 8.7 fold
[12]; [15]
  IC50: 4.06 ± 1.12 µM
[12]; versus mTOR
  Fold selectivity for DNA-PK: 495 fold
